ChEMBL document CHEMBL1143457, “Benzyl ether structure-activity relationships in a series of ketopiperazine-based renin inhibitors” (Bioorg Med Chem Lett, 2005)
In brackets after ≈: the same amount, converted by molar mass.

Experiments:
[1] = biological target: T1, Renin (Homo sapiens, UniProt P00797); assay: Inhibitory activity against renin in fluorescent tGFP assay
T1 sequence (P00797 whole entry): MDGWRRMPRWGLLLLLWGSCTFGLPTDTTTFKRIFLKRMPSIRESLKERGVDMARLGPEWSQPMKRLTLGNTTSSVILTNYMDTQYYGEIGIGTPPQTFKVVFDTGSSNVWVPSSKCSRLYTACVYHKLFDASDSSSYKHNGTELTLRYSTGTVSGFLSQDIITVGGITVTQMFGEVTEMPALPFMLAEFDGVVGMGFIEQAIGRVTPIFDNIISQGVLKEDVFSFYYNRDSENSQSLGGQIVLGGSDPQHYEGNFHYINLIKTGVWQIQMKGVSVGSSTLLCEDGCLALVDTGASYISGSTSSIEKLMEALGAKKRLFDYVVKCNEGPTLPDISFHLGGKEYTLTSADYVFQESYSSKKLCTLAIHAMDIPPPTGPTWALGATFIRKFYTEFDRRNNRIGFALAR

[2] = Distribution coefficient at PH 7.4 was determined; assay type: physicochemical; details: octanol/water
[3] = biological target: CYP3A4 (Homo sapiens, UniProt P08684); assay: Inhibition of CYP3A4 at 3 uM was measured using fluorogenic substrate 7-Benzyloxy-4-(trifluoromethyl)-coumarin; assay type: ADME; details: probe 7-Benzyloxy-4-(trifluoromethyl)-coumarin
Chain of CYP3A4 (P08684 whole entry): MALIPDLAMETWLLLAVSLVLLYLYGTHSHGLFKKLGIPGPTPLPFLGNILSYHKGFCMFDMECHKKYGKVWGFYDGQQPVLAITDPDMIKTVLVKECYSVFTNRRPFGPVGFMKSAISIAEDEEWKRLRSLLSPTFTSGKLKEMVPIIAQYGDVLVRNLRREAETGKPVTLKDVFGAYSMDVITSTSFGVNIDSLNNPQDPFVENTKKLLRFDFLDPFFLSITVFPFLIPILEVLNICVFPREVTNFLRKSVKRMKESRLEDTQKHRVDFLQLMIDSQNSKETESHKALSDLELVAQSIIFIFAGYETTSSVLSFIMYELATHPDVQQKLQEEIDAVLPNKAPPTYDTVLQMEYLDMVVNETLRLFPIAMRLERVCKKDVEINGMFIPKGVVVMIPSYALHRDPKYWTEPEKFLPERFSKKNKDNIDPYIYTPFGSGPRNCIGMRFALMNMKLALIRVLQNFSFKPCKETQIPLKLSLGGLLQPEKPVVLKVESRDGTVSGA

[4] = Apparent solubility was measured at PH 6.5 by nepholometric method; assay type: ADME; details: buffer

| IC50 [1] [nM] | SMILES | other results |
| --- | --- | --- |
| 0.4 | COc1ccccc1COCCCOc1ccc(N2C(=O)CNC[C@@H]2COc2ccc3c(c2)N(CCNC(C)=O)CCC3)cc1 | – |
| 180 | COc1ccccc1COCCCOc1ccc(N2C(=O)CNC[C@@H]2COCc2cc(Cl)cc(Cl)c2)cc1 | – |
| 1600 | COc1ccccc1COCCCOc1ccc(N2C(=O)CNC[C@@H]2COCc2cc(F)cc(F)c2)cc1 | – |
| 300 | COc1ccccc1COCCCOc1ccc(N2C(=O)CNC[C@@H]2COCc2ccc(Cl)cc2)cc1 | – |
| 6800 | COc1ccccc1COCCCOc1ccc(N2C(=O)CNC[C@@H]2COCc2ccc(C(F)(F)F)cc2)cc1 | – |
| 270 | COc1ccccc1COCCCOc1ccc(N2C(=O)CNC[C@@H]2COCc2ccccc2C(F)(F)F)cc1 | – |
| > 1000 | COc1ccccc1COCCCOc1ccc(N2C(=O)CNC[C@@H]2COCc2ccncc2)cc1 | – |
| 270 | COc1ccccc1COCCCOc1ccc(N2C(=O)CNC[C@@H]2COCc2ccc(F)c(C)c2)cc1 | – |
| 270 | COc1ccccc1COCCCOc1ccc(N2C(=O)CNC[C@@H]2COCc2cccc(C(F)(F)F)c2F)cc1 | – |
| 260 | COc1ccccc1COCCCOc1ccc(N2C(=O)CNC[C@@H]2COCc2ccc(C)c(Cl)c2)cc1 | – |
| 410 | COc1ccccc1COCCCOc1ccc(N2C(=O)CNC[C@@H]2COCc2cccc(OC(F)(F)F)c2)cc1 | – |
| > 10000 | COc1ccccc1COCCCOc1ccc(N2C(=O)CNC[C@H]2COCc2cccnc2)cc1 | – |
| 1200 | COc1ccccc1COCCCOc1ccc(N2C(=O)CNC[C@@H]2COCc2cccc(C#N)c2)cc1 | – |
| 900 | COc1ccccc1COCCCOc1ccc(N2C(=O)CNC[C@@H]2COCc2ccccc2OC)cc1 | – |
| 330 | COc1ccccc1COCCCOc1ccc(N2C(=O)CNC[C@@H]2COCc2cccc(Cl)c2)cc1 | – |
| 594 | COc1ccccc1COCCCOc1ccc(N2C(=O)CNC[C@H]2COCc2ccc(Cl)c(C(F)(F)F)c2)cc1 | – |
| 410 | COc1ccccc1COCCCOc1ccc(N2C(=O)CNC[C@@H]2COCc2ccc(F)cc2Cl)cc1 | – |
| 140 | COc1ccccc1COCCCOc1ccc(N2C(=O)CNC[C@@H]2COCc2ccc(F)c(C(F)(F)F)c2)cc1 | logD [2]: 3.7; inhibition at 3 µM [3]: 87%; solubility kinetic [4]: 7 µg/mL (≈ 12.1 µM) |
| 120 | COc1ccccc1COCCCOc1ccc(N2C(=O)CNC[C@@H]2COCc2ccc(Cl)c(C(F)(F)F)c2)cc1 | logD [2]: 3.7; inhibition at 3 µM [3]: 97%; solubility kinetic [4]: 3 µg/mL (≈ 5.06 µM) |
| 120 | COc1ccccc1COCCCOc1ccc(N2C(=O)CNC[C@@H]2COCc2cccnc2)cc1 | logD [2]: 2.9; inhibition at 3 µM [3]: 44%; solubility kinetic [4]: 100 µg/mL (≈ 203 µM) |
| > 1000 | COc1ccccc1COCCCOc1ccc(N2C(=O)CNC[C@@H]2COCc2ccccn2)cc1 | – |
| 250 | COc1ccccc1COCCCOc1ccc(N2C(=O)CNC[C@@H]2COCc2ccc(F)c(F)c2)cc1 | – |
| 230 | COc1ccccc1COCCCOc1ccc(N2C(=O)CNC[C@@H]2COCc2ccccc2F)cc1 | – |
| 600 | COc1cccc(COC[C@H]2CNCC(=O)N2c2ccc(OCCCOCc3ccccc3OC)cc2)c1 | – |
| 230 | COc1ccccc1COCCCOc1ccc(N2C(=O)CNC[C@@H]2COCc2cccc(C(F)(F)F)c2)cc1 | – |
